According to BindingDB's records for doi:10.1021/jm040037k (Abbott Laboratories, 2004):
Square brackets hold non-standard residues; d marks the D form. Peptide text beside a SMILES is read from it. * marks the point of attachment. Tle = CC(C)(C)[C@H](N)C(=O)O; NMeA = CN[C@@H](C)C(=O)O; βNA = c1ccc2cc(N*)ccc2c1

These compounds were tested against T1, E3 ubiquitin-protein ligase XIAP [241-356] (Homo sapiens, UniProt P98170) (assay: Ligand Binding Assay). Settings: pH 7.4; 22 °C.
T1 construct: 241-356
Method: A fluorescence polarization anisotropy (FPA) competition assay was used to determine the affinities of compounds to BIR3 protein. Fluorescence polarization measurements were carried out on an Analyst 96-well plate reader. 6-Carboxyfluorescein (FAM) labeled peptides with the sequences AVPIAQK (FAM)-NH2 was used as a probe. Dissociation constants were determined from titration curves with in-house written software.

T1 sequence (P98170 241-356): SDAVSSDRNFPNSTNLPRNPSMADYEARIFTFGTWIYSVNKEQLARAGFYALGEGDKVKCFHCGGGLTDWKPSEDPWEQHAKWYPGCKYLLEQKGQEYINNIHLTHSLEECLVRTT

Point of comparison: `CN[C@@H](C)C(=O)N[C@H](C(=O)N1CCC[C@H]1C(=O)NC1c2ccccc2-c2ccccc21)C(C)(C)C` [H-N-Me-Ala-Tle-Pro-fluoren-9-yl Amide], Kd 47 nM. Against it:
- C[C@@H](C(=O)N[C@H](C(=O)N1CCC[C@H]1C(=O)N[C@@H]1CCCc2ccccc21)C(C)(C)C)N(C)C [(2S)-1-[(2S)-2-[(2S)-2-(dimethylamino)propanamido]-3,3-dimethylbutanoyl]-N-[(1R)-1,2,3,4-tetrahydronaphthalen-1-yl]pyrrolidine-2-carboxamide] — higher, > 1000 nM
- C[C@@H](C(=O)N[C@H](C(=O)N1CCC[C@H]1C(=O)N[C@@H]1CCCc2ccccc21)C1CCCCC1)N(C)C [(2S)-1-[(2S)-2-cyclohexyl-2-[(2S)-2-(dimethylamino)propanamido]acetyl]-N-[(1R)-1,2,3,4-tetrahydronaphthalen-1-yl]pyrrolidine-2-carboxamide] — higher, > 1000 nM
- CN[C@@H](C)C(=O)N[C@H](C(=O)N1CCC[C@H]1C(=O)Nc1ccc2ccccc2c1)C(C)(C)C [(2S)-1-[(2S)-3,3-dimethyl-2-[(2S)-2-(methylamino)propanamido]butanoyl]-N-(naphthalen-2-yl)pyrrolidine-2-carboxamide] (H-[NMeA]-[Tle]-Pro-βNA) — higher, > 1000 nM
- CN[C@@H](C)C(=O)N[C@H](C(=O)N1CCC[C@H]1C(=O)N[C@@H]1CCc2ccccc21)C(C)(C)C [(2S)-N-[(1R)-2,3-dihydro-1H-inden-1-yl]-1-[(2S)-3,3-dimethyl-2-[(2S)-2-(methylamino)propanamido]butanoyl]pyrrolidine-2-carboxamide] — 1.6-fold lower, 29 nM
- C[C@@H](C(=O)N[C@H](C(=O)N1C[C@@H](Oc2ccccc2)C[C@H]1C(=O)N[C@@H]1CCCc2ccccc21)C(C)(C)C)N(C)C [(2S,4S)-1-[(2S)-2-[(2S)-2-(dimethylamino)propanamido]-3,3-dimethylbutanoyl]-4-phenoxy-N-[(1R)-1,2,3,4-tetrahydronaphthalen-1-yl]pyrrolidine-2-carboxamide] — higher, > 1000 nM
- CN[C@@H](C)C(=O)N[C@H](C(=O)N1CCC[C@H]1C(=O)N[C@H]1CCc2ccccc21)C(C)(C)C [H-N-Me-Ala-Tle-Pro-(S)-indan-1-yl Amide] — higher, > 1000 nM
- CN[C@@H](C)C(=O)N[C@H](C(=O)N1CCC[C@H]1C(=O)Nc1cccc2ccccc12)C(C)(C)C [H-N-Me-Ala-Tle-Pro-naphth-1-yl Amide] — higher, > 500 nM
